Test results reported in PubChem BioAssay AID1259407 (Chemical Carcinogenesis Research Information System (CCRIS), 2018).
Calls of active or inactive are those of the source. No rule for the calls is given here.

Tested on: CCRIS mutagenicity, Ames/micronucleus/aberration tests
Assay: CCRIS mutagenicity studies
[1] = Test System: AMES SALMONELLA TYPHIMURIUM, Strain/Indicator: TA102, Metabolic Activation: NONE, Method: STANDARD PLATE

CC(C)[N+](=O)[O-]
mutagenic call (End Point: IN VITRO CHROMOSOMAL ABERRATIONS, Test System: CHINESE HAMSTER OVARY CELLS, Metabolic Activation: NONE): inactive; negative
mutagenic call (End Point: IN VITRO CHROMOSOMAL ABERRATIONS, Test System: CHINESE HAMSTER OVARY CELLS, Metabolic Activation: RAT, LIVER, S-9, AROCLOR 1254): inactive; negative
mutagenic call (End Point: In vitro chromosomal aberrations, Test System: Chinese hamster lung (CHL/IU) cells, Metabolic Activation: None): inactive; negative
mutagenic call (End Point: In vitro chromosomal aberrations, Test System: Chinese hamster lung (CHL/IU) cells, Metabolic Activation: Rat, Liver, S9, Phenobarbital and 5,6-benzoflavone): inactive; negative
mutagenic call (Test System: AMES SALMONELLA TYPHIMURIUM, Strain/Indicator: TA98(NR), Metabolic Activation: NONE, Method: PREINCUBATION): active; positive
mutagenic call (Test System: AMES SALMONELLA TYPHIMURIUM, Strain/Indicator: TA98(NR), Metabolic Activation: RAT, LIVER, S-9, CLOPHEN A-50, Method: PREINCUBATION): active; positive
mutagenic call (Test System: AMES SALMONELLA TYPHIMURIUM, Strain/Indicator: TA98, Metabolic Activation: RAT, LIVER, S-9, AROCLOR 1254, Method: PREINCUBATION): active; positive
mutagenic call (Test System: AMES SALMONELLA TYPHIMURIUM, Strain/Indicator: TA98, Metabolic Activation: RAT, LIVER, S-9, CLOPHEN A-50, Method: PREINCUBATION): active; positive
mutagenic call (Test System: AMES SALMONELLA TYPHIMURIUM, Strain/Indicator: TA98, Metabolic Activation: RAT, LIVER, S-9, KANECHLOR 500, Method: PREINCUBATION): active; positive
mutagenic call (Test System: AMES SALMONELLA TYPHIMURIUM, Strain/Indicator: TA100(NR), Metabolic Activation: NONE, Method: PREINCUBATION): active; positive
mutagenic call (Test System: AMES SALMONELLA TYPHIMURIUM, Strain/Indicator: TA100(NR), Metabolic Activation: RAT, LIVER, S-9, CLOPHEN A-50, Method: PREINCUBATION): active; positive
mutagenic call (Test System: AMES SALMONELLA TYPHIMURIUM, Strain/Indicator: TA100, Metabolic Activation: RAT, LIVER, S-9, AROCLOR 1254, Method: PREINCUBATION): active; positive
mutagenic call (Test System: AMES SALMONELLA TYPHIMURIUM, Strain/Indicator: TA100, Metabolic Activation: RAT, LIVER, S-9, AROCLOR, Method: PREINCUBATION): active; positive
mutagenic call (Test System: AMES SALMONELLA TYPHIMURIUM, Strain/Indicator: TA100, Metabolic Activation: RAT, LIVER, S-9, CLOPHEN A-50, Method: PREINCUBATION): active; positive
mutagenic call (Test System: AMES SALMONELLA TYPHIMURIUM, Strain/Indicator: TA100, Metabolic Activation: RAT, LIVER, S-9, KANECHLOR 500, Method: PREINCUBATION): active; positive
mutagenic call (Test System: AMES SALMONELLA TYPHIMURIUM, Strain/Indicator: TA102, Metabolic Activation: NONE, Method: PREINCUBATION): active; positive
mutagenic call (Test System: AMES SALMONELLA TYPHIMURIUM, Strain/Indicator: TA102, Metabolic Activation: RAT, LIVER, S-9, AROCLOR 1254, Method: PREINCUBATION): active; positive
mutagenic call (Test System: AMES SALMONELLA TYPHIMURIUM, Strain/Indicator: TA102, Metabolic Activation: RAT, LIVER, S-9, AROCLOR, Method: PREINCUBATION): active; positive
mutagenic call (Test System: CHINESE HAMSTER V-79, Strain/Indicator: V-79/6-THIOGUANINE, Metabolic Activation: NONE, Method: STANDARD PLATE): active; positive
mutagenic call (Test System: CHINESE HAMSTER V-79, Strain/Indicator: V-79/6-THIOGUANINE, Metabolic Activation: RAT, HEPATOCYTES): inactive; negative
mutagenic call (Test System: CHINESE HAMSTER V-79, Strain/Indicator: V-79/OUABAIN, Metabolic Activation: NONE): inactive; negative
mutagenic call (Test System: CHINESE HAMSTER V-79, Strain/Indicator: V-79/OUABAIN, Metabolic Activation: RAT, HEPATOCYTES): inactive; negative
mutagenic call (Test System: E. COLI, Strain/Indicator: WP2 UVRA (PKM101), Metabolic Activation: NONE, Method: PREINCUBATION): active; positive
mutagenic call (Test System: E. COLI, Strain/Indicator: WP2 UVRA (PKM101), Metabolic Activation: RAT, LIVER, S-9, KANECHLOR 1254, Method: PREINCUBATION): active; positive
mutagenic call (Test System: UDS HUMAN HEPATOCYTES, Strain/Indicator: THY INCORP, Metabolic Activation: NONE, Method: AUTORADIOGRAPHY): active; positive
mutagenic call (Test System: UDS HUMAN HEPATOCYTES, Strain/Indicator: THY-INCORP, Metabolic Activation: NONE, Method: AUTORADIOGRAPHY): active; positive
mutagenic call (Test System: UDS MOUSE HEPATOCYTES, Strain/Indicator: THY INCORP, Metabolic Activation: NONE, Method: AUTORADIOGRAPHY): active; positive
mutagenic call (Test System: UDS RAT HEPATOCYTES, Strain/Indicator: THY INCORP, Metabolic Activation: NONE): active; positive
mutagenic call (Test System: UDS RAT HEPATOCYTES, Strain/Indicator: THY INCORP, Metabolic Activation: NONE, Method: AUTORADIOGRAPHY): active; positive
mutagenic call (Test System: UDS RAT HEPATOCYTES, Strain/Indicator: THY-INCORP, Metabolic Activation: NONE, Method: AUTORADIOGRAPHY): active; positive
mutagenic call (Test System: UDS RODENT HEPATOCYTES, Strain/Indicator: THY INCORP (NON-S-PHASE), Metabolic Activation: IN VIVO, Method: AUTORADIOGRAPHY): active; positive
mutagenic call (Test System: UDS RODENT HEPATOCYTES, Strain/Indicator: THY INCORP (NON-S-PHASE), Metabolic Activation: NONE, Method: LIQUID SCINTILLATION COUNTING): active; positive
mutagenic call (Test System: UDS RODENT HEPATOCYTES, Strain/Indicator: THY INCORP (NON-S-PHASE), Metabolic Activation: NONE, Method: PREINCUBATION): inactive; negative

CC=C(C)C(=O)O[C@H]1[C@H](OC(C)=O)[C@]2(CO)[C@H](O)C[C@]3(C)C(=CC[C@@H]4[C@@]5(C)CC[C@@H](O[C@@H]6O[C@H](C(=O)O)[C@@H](O[C@@H]7O[C@H](CO)[C@@H](O)[C@H](O)[C@H]7O)[C@H](O)[C@H]6O[C@@H]6O[C@H](CO)[C@@H](O)[C@H](O)[C@H]6O)[C@](C)(CO)[C@@H]5CC[C@]43C)[C@@H]2CC1(C)C
mutagenic call (Test System: AMES SALMONELLA TYPHIMURIUM, Strain/Indicator: TA97, Metabolic Activation: NONE, Method: STANDARD PLATE): inactive; negative
mutagenic call (Test System: AMES SALMONELLA TYPHIMURIUM, Strain/Indicator: TA97, Metabolic Activation: RAT, LIVER, S-9, AROCLOR 1254, Method: STANDARD PLATE): inactive; negative
mutagenic call (Test System: AMES SALMONELLA TYPHIMURIUM, Strain/Indicator: TA98, Metabolic Activation: NONE, Method: STANDARD PLATE): inactive; negative
mutagenic call (Test System: AMES SALMONELLA TYPHIMURIUM, Strain/Indicator: TA98, Metabolic Activation: RAT, LIVER, S-9, AROCLOR 1254, Method: STANDARD PLATE): inactive; negative
mutagenic call (Test System: AMES SALMONELLA TYPHIMURIUM, Strain/Indicator: TA100, Metabolic Activation: NONE, Method: STANDARD PLATE): inactive; negative
mutagenic call (Test System: AMES SALMONELLA TYPHIMURIUM, Strain/Indicator: TA100, Metabolic Activation: RAT, LIVER, S-9, AROCLOR 1254, Method: STANDARD PLATE): inactive; negative
mutagenic call [1]: inactive; negative
mutagenic call (Test System: AMES SALMONELLA TYPHIMURIUM, Strain/Indicator: TA102, Metabolic Activation: RAT, LIVER, S-9, AROCLOR 1254, Method: STANDARD PLATE): inactive; negative

CC1(C)CC(C(=O)NC(CO)C(O)CO)C(C)(C)N1[O] (centres undefined)
mutagenic call [1]: inactive; negative
mutagenic call (Test System: AMES SALMONELLA TYPHIMURIUM, Strain/Indicator: TA102, Metabolic Activation: XANTHINE OXIDASE, Method: STANDARD PLATE): inactive; negative
mutagenic call (Test System: AMES SALMONELLA TYPHIMURIUM, Strain/Indicator: TA104, Metabolic Activation: NONE, Method: STANDARD PLATE): inactive; negative
mutagenic call (Test System: AMES SALMONELLA TYPHIMURIUM, Strain/Indicator: TA104, Metabolic Activation: XANTHINE OXIDASE, Method: STANDARD PLATE): inactive; negative
mutagenic call (Test System: CHO, Strain/Indicator: CHO/6-THIOGUANINE, Metabolic Activation: NONE, Method: STANDARD PLATE): inactive; negative
mutagenic call (Test System: CHO, Strain/Indicator: CHO/6-THIOGUANINE, Metabolic Activation: RAT, LIVER, S-9, AROCLOR 1254, Method: STANDARD PLATE): inactive; negative
mutagenic call (Test System: CHO, Strain/Indicator: CHO/OUABAIN, Metabolic Activation: NONE, Method: STANDARD PLATE): inactive; negative
mutagenic call (Test System: CHO, Strain/Indicator: CHO/OUABAIN, Metabolic Activation: RAT, LIVER, S-9, AROCLOR 1254, Method: STANDARD PLATE): inactive; negative
